From PubChem BioAssay AID2060488 (Molecular Pharmacology Branch, DTP, NCI, 2025)

Tested on: 966289-007-R4-J1-PDC complex spheroid viability
Assay: Anticancer human tumor 966289-007-R4-J1-PDC patient-derived pancreatic adenocarcinoma cell line growth inhibition [GQUAD]
Conditions: for IC50: curve of first compound; for viability, T/C: stronger effect = lower value
In short: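 Multi-cell-type spheroids of tumor cells with HUVEC and mesenchymal stem cells, treated with drug combinations. Concentrations descend in half-log steps from near clinical Cmax, or from 10 microM where Cmax is unknown; viability read-out.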

[1] = second compound 0.0316 µM, first compound 0.0316 µM
[2] = second compound 0.0316 µM, first compound 0.1 µM
[3] = second compound 0.0316 µM, first compound 0.316 µM
[4] = second compound 0.0316 µM, first compound 1 µM
[5] = second compound 0.0316 µM, first compound 3.16 µM
[6] = second compound 0.0316 µM, first compound 10 µM
[7] = second compound 0.1 µM, first compound 0.0316 µM
[8] = second compound 0.1 µM, first compound 0.1 µM
[9] = second compound 0.1 µM, first compound 0.316 µM
[10] = second compound 0.1 µM, first compound 1 µM
[11] = second compound 0.1 µM, first compound 3.16 µM
[12] = second compound 0.1 µM, first compound 10 µM
[13] = second compound 0.316 µM, first compound 0.0316 µM
[14] = second compound 0.316 µM, first compound 0.1 µM
[15] = second compound 0.316 µM, first compound 0.316 µM
[16] = second compound 0.316 µM, first compound 1 µM
[17] = second compound 0.316 µM, first compound 3.16 µM
[18] = second compound 0.316 µM, first compound 10 µM
[19] = second compound 1 µM, first compound 0.0316 µM
[20] = second compound 1 µM, first compound 0.1 µM
[21] = second compound 1 µM, first compound 0.316 µM
[22] = second compound 1 µM, first compound 1 µM
[23] = second compound 1 µM, first compound 3.16 µM
[24] = second compound 1 µM, first compound 10 µM
[25] = second compound 3.16 µM, first compound 0.0316 µM
[26] = second compound 3.16 µM, first compound 0.1 µM
[27] = second compound 3.16 µM, first compound 0.316 µM
[28] = second compound 3.16 µM, first compound 1 µM
[29] = second compound 3.16 µM, first compound 3.16 µM
[30] = second compound 3.16 µM, first compound 10 µM
[31] = second compound 10 µM, first compound 0.0316 µM
[32] = second compound 10 µM, first compound 0.1 µM
[33] = second compound 10 µM, first compound 0.316 µM
[34] = second compound 10 µM, first compound 1 µM
[35] = second compound 10 µM, first compound 3.16 µM
[36] = second compound 10 µM, first compound 10 µM
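Also: spheroids exposed to the agents for seven days before readout.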
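For viability, T/C in this document: percent viability relative to DMSO vehicle control wells taken as 100%.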

`COc1cccc2c1C(=O)c1c(O)c3c(c(O)c1C2=O)CC(O)(C(=O)CO)CC3OC1CC(N)C(O)C(C)O1` (stereo not drawn) + Cc1[nH]c2ccc(F)cc2c1-c1nc2c3cccnc3c3ncccc3c2[nH]1 was tested, and the IC50 (second compound 0.0316 µM) was 67.3 nM, the IC50 (second compound 0.1 µM) was 63.6 nM and the IC50 (second compound 0.316 µM) was 61.1 nM. The IC50 (second compound 1 µM) was 61.2 nM, the IC50 (second compound 3.16 µM) was 56.5 nM and the IC50 (second compound 10 µM) was 52 nM. The viability, T/C [1] was 114%, the viability, T/C [2] was 16.4% and the viability, T/C [3] was 1.91%. For the same molecule, the viability, T/C [4] was 0.7%, the viability, T/C [5] was 0.21% and the viability, T/C [6] was 0.6%. The viability, T/C [7] was 104%, the viability, T/C [8] was 15.1% and the viability, T/C [9] was 2.16%. The viability, T/C [10] was 0.91%, the viability, T/C [11] was 0.22% and the viability, T/C [12] was 0.26%. The viability, T/C [13] was 100%, the viability, T/C [14] was 12.6% and the viability, T/C [15] was 2.39%. It also gave a viability, T/C [16] of 0.78%, a viability, T/C [17] of 0.23% and a viability, T/C [18] of 0.33%. It also gave a viability, T/C [19] of 97.1%, a viability, T/C [20] of 14.7% and a viability, T/C [21] of 2.52%. It also gave a viability, T/C [22] of 0.71%, a viability, T/C [23] of 0.32% and a viability, T/C [24] of 0.5%. It also gave a viability, T/C [25] of 87.9%, a viability, T/C [26] of 12.9% and a viability, T/C [27] of 2.39%. It also gave a viability, T/C [28] of 0.86%, a viability, T/C [29] of 0.29% and a viability, T/C [30] of 0.56%. For the same molecule, the viability, T/C [31] was 79.9%, the viability, T/C [32] was 10.9% and the viability, T/C [33] was 1.72%. It also gave a viability, T/C [34] of 0.61%, a viability, T/C [35] of 0.4% and a viability, T/C [36] of 0.57%.
In the case of `Cc1[nH]c2ccccc2c1CCNCc1ccc(/C=C/C(=O)NO)cc1` + Cc1[nH]c2ccc(F)cc2c1-c1nc2c3cccnc3c3ncccc3c2[nH]1, the IC50 (second compound 0.0316 µM) is reported as 76 nM, the IC50 (second compound 0.1 µM) is reported as 92.8 nM and the IC50 (second compound 0.316 µM) is reported as 95.8 nM. It also gave an IC50 (second compound 1 µM) of 127 nM, an IC50 (second compound 3.16 µM) of 79.7 nM and an IC50 (second compound 10 µM) of 104 nM. It also gave a viability, T/C (second compound 0.0316 µM, first compound 0.000999 µM) of 110%, a viability, T/C (second compound 0.0316 µM, first compound 0.00316 µM) of 104% and a viability, T/C (second compound 0.0316 µM, first compound 0.00999 µM) of 107%. The viability, T/C [1] was 103%, the viability, T/C (second compound 0.0316 µM, first compound 0.0999 µM) was 33.6% and the viability, T/C [3] was 4.95%. The viability, T/C (second compound 0.1 µM, first compound 0.000999 µM) was 111%, the viability, T/C (second compound 0.1 µM, first compound 0.00316 µM) was 109% and the viability, T/C (second compound 0.1 µM, first compound 0.00999 µM) was 111%. It also gave a viability, T/C [7] of 105%, a viability, T/C (second compound 0.1 µM, first compound 0.0999 µM) of 46.2% and a viability, T/C [9] of 5.29%. For the same molecule, the viability, T/C (second compound 0.316 µM, first compound 0.000999 µM) was 106%, the viability, T/C (second compound 0.316 µM, first compound 0.00316 µM) was 108% and the viability, T/C (second compound 0.316 µM, first compound 0.00999 µM) was 113%. The viability, T/C [13] was 107%, the viability, T/C (second compound 0.316 µM, first compound 0.0999 µM) was 47.8% and the viability, T/C [15] was 6.15%. The viability, T/C (second compound 1 µM, first compound 0.000999 µM) was 98.5%, the viability, T/C (second compound 1 µM, first compound 0.00316 µM) was 103% and the viability, T/C (second compound 1 µM, first compound 0.00999 µM) was 111%. The viability, T/C [19] was 108%, the viability, T/C (second compound 1 µM, first compound 0.0999 µM) was 61.5% and the viability, T/C [21] was 5.78%. For the same molecule, the viability, T/C (second compound 3.16 µM, first compound 0.000999 µM) was 107%, the viability, T/C (second compound 3.16 µM, first compound 0.00316 µM) was 114% and the viability, T/C (second compound 3.16 µM, first compound 0.00999 µM) was 117%. The viability, T/C [25] was 110%, the viability, T/C (second compound 3.16 µM, first compound 0.0999 µM) was 35.4% and the viability, T/C [27] was 5.51%. For the same molecule, the viability, T/C (second compound 10 µM, first compound 0.000999 µM) was 110%, the viability, T/C (second compound 10 µM, first compound 0.00316 µM) was 104% and the viability, T/C (second compound 10 µM, first compound 0.00999 µM) was 114%. It also gave a viability, T/C [31] of 93.5%, a viability, T/C (second compound 10 µM, first compound 0.0999 µM) of 52.2% and a viability, T/C [33] of 5.13%.
With `Nc1ccn(C2OC(CO)C(O)C2(F)F)c(=O)n1` (stereo not drawn) + Cc1[nH]c2ccc(F)cc2c1-c1nc2c3cccnc3c3ncccc3c2[nH]1 the IC50 (second compound 0.0316 µM) was < 31.6 nM, the IC50 (second compound 0.1 µM) was < 31.6 nM and the IC50 (second compound 0.316 µM) was < 31.6 nM. For the same molecule, the IC50 (second compound 1 µM) was < 31.6 nM, the IC50 (second compound 3.16 µM) was < 31.6 nM and the IC50 (second compound 10 µM) was < 31.6 nM. The viability, T/C [1] was 7.33%, the viability, T/C [2] was 1.13% and the viability, T/C [3] was 0.84%. It also gave a viability, T/C [4] of 0.84%, a viability, T/C [5] of 1.15% and a viability, T/C [6] of 0.76%. It also gave a viability, T/C [7] of 7.75%, a viability, T/C [8] of 1% and a viability, T/C [9] of 1.28%. For the same molecule, the viability, T/C [10] was 1.1%, the viability, T/C [11] was 0.83% and the viability, T/C [12] was 0.76%. For the same molecule, the viability, T/C [13] was 5.74%, the viability, T/C [14] was 1.09% and the viability, T/C [15] was 1.33%. For the same molecule, the viability, T/C [16] was 0.83%, the viability, T/C [17] was 0.67% and the viability, T/C [18] was 0.86%. It also gave a viability, T/C [19] of 7.53%, a viability, T/C [20] of 0.98% and a viability, T/C [21] of 1.01%. For the same molecule, the viability, T/C [22] was 0.85%, the viability, T/C [23] was 0.92% and the viability, T/C [24] was 0.83%. It also gave a viability, T/C [25] of 4.68%, a viability, T/C [26] of 1.2% and a viability, T/C [27] of 1.1%. For the same molecule, the viability, T/C [28] was 0.82%, the viability, T/C [29] was 1.7% and the viability, T/C [30] was 0.93%. The viability, T/C [31] was 2.75%, the viability, T/C [32] was 1.07% and the viability, T/C [33] was 0.98%. The viability, T/C [34] was 0.76%, the viability, T/C [35] was 1.44% and the viability, T/C [36] was 0.94%.
Molecule `O=c1[nH]cc(F)c(=O)[nH]1` + Cc1[nH]c2ccc(F)cc2c1-c1nc2c3cccnc3c3ncccc3c2[nH]1 has an IC50 (second compound 0.0316 µM) of 159 nM, an IC50 (second compound 0.1 µM) of 186 nM and an IC50 (second compound 0.316 µM) of 181 nM. It also gave an IC50 (second compound 1 µM) of 164 nM, an IC50 (second compound 3.16 µM) of 150 nM and an IC50 (second compound 10 µM) of 93.4 nM. For the same molecule, the viability, T/C [1] was 111%, the viability, T/C [2] was 74.5% and the viability, T/C [3] was 13.6%. For the same molecule, the viability, T/C [4] was 5.76%, the viability, T/C [5] was 6.03% and the viability, T/C [6] was 6.51%. It also gave a viability, T/C [7] of 112%, a viability, T/C [8] of 92.4% and a viability, T/C [9] of 13.9%. The viability, T/C [10] was 6.57%, the viability, T/C [11] was 5.93% and the viability, T/C [12] was 6.8%. The viability, T/C [13] was 95.9%, the viability, T/C [14] was 90.5% and the viability, T/C [15] was 12.1%. For the same molecule, the viability, T/C [16] was 7.51%, the viability, T/C [17] was 5.56% and the viability, T/C [18] was 6.35%. The viability, T/C [19] was 96.3%, the viability, T/C [20] was 76.5% and the viability, T/C [21] was 14.8%. It also gave a viability, T/C [22] of 7.21%, a viability, T/C [23] of 6.11% and a viability, T/C [24] of 6.82%. It also gave a viability, T/C [25] of 110%, a viability, T/C [26] of 68.8% and a viability, T/C [27] of 15.2%. The viability, T/C [28] was 9.36%, the viability, T/C [29] was 7.92% and the viability, T/C [30] was 9.72%. For the same molecule, the viability, T/C [31] was 114%, the viability, T/C [32] was 46% and the viability, T/C [33] was 14.6%. The viability, T/C [34] was 9.18%, the viability, T/C [35] was 6.61% and the viability, T/C [36] was 7.61%.
